Read-outs that look alike come from different tables or passages of the source. Bounds are passed on as bounds.

Assay type in all cases: cell-based
For one assay, the system named is MM1R. The experiment in a line: Cell viability assay. As to conditions: MM.1R, 24 h, read-out: AZD5991 24h GI50.
For the next assay, the system named is Nomo1. The experiment in a line: Cell viability assay. Conditions: Homo sapiens, NOMO-1, 24 h; Nomo1 (AML); read-out: AZD5991 24h GI50.
A further assay has as its system ML2. The experiment in a line: Cell viability assay. Conditions: Homo sapiens, ML-2, 24 h; ML2 (AML); read-out: AZD5991 24h GI50.
In a further assay the test system is KG1. The experiment in a line: Cell viability assay. Conditions: Homo sapiens, KG-1, 24 h; KG1 (AML); read-out: AZD5991 24h GI50.
A further assay relates to NB4. The experiment in a line: Cell viability assay. Conditions: Homo sapiens, NB-4, 24 h; NB4 (AML); read-out: AZD5991 24h GI50.
Another assay deals with HL60. The experiment in a line: Cell viability assay. Conditions: Homo sapiens, HL-60, 24 h; HL60 (AML); read-out: AZD5991 24h GI50.
The next assay has as its system Bjab. The experiment in a line: Cell viability assay. Conditions: Homo sapiens, 24 h; Bjab (NHL); read-out: AZD5991 24h GI50.
In the next assay the test system is RCPIWM1. The experiment in a line: Cell viability assay. Conditions: 24 h; RCPIWM1 (NHL); read-out: AZD5991 24h GI50.
Another assay deals with H2110. The experiment in a line: Cell viability assay. Conditions: NCI-H2110, 24 h; H2110 (Lung); read-out: AZD5991 24h GI50.
A further assay relates to H23. The experiment in a line: Cell viability assay. Conditions: Homo sapiens, NCI-H23, 24 h; H23 (Lung); read-out: AZD5991 24h GI50.
The subject of a further assay is BT20. The experiment in a line: Cell viability assay. As to conditions: Homo sapiens, BT-20, 24 h; BT20 (Breast); read-out: AZD5991 24h GI50.
In another assay the test system is A375. The experiment in a line: Cell viability assay. Conditions: Homo sapiens, A-375, 24 h; A375 (Skin); read-out: AZD5991 24h GI50.
The next assay concerns SKOV3. The experiment in a line: Cell viability assay. Conditions: Homo sapiens, SK-OV-3, 24 h; SKOV3 (Others); read-out: AZD5991 24h GI50.
The test system of a further assay is HEL92.1.7. The experiment in a line: Caspase-3/7 activation assay. Conditions: Homo sapiens, HEL 92.1.7, 6 h.

Method for A375: (§1) Cells were plated at 3000 cells/well in 384-well white plates in corresponding cell growth media. […] Caspase-3/7 activation was subsequently determined using a Caspase-Glo 3/7 Reagent (Promega) and viability was assayed using the CellTiter-Glo Reagent (Promega) as described in manufacturer’s instructions. Dose–response curves for caspase-3/7 activation and viability were plotted and analyzed (including EC50 and GI50 determination) using GraphPad Prism.
Method for BT20: as §1
Method for Bjab: as §1
Method for H2110: as §1
Method for H23: as §1
Method for HEL92.1.7: as §1
Method for HL60: as §1
Method for KG1: as §1
Method for ML2: as §1
Method for MM1R: as §1
Method for NB4: as §1
Method for Nomo1: as §1
Method for RCPIWM1: as §1
Method for SKOV3: as §1

For the molecule `Cc1c2c(nn1C)CSCc1cc(n(C)n1)CSc1cc(c3ccccc3c1)OCCCc1c(C(=O)O)n(C)c3c-2c(Cl)ccc13` (atropisomer, axis not shown; (Ra)) [(Ra)-7], the concentration for 50% growth inhibition (GI50) in the assay with MM1R is 87 nM; with Nomo1, 21 nM; in the assay on ML2, 69 nM; in the assay on KG1 it was 291 nM; in the assay with NB4, 292 nM; with HL60, 543 nM. Moreover, the GI50 in the assay on Bjab amounted to 16 nM; with RCPIWM1, 20 nM; in the assay on H2110, 140 nM; with H23 it was 122 nM; in the assay with BT20 it was 4.63 µM; with A375, 13.5 µM. Also, the GI50 in the assay with SKOV3 came out at 144 nM. Besides, the EC50 in the assay with HEL92.1.7 (read-out: 6h caspase EC50, HEL9217, single agent) was more than 333 nM; in the assay with HEL92.1.7 (read-out: AZD5991 6h EC50, HEL92.1.7 (AML), caspase 3/7 activation), 564 nM.

The record behind these values is paper PMC6297231 (Nature Communications, 2018).
